pEC50: −log10 of the molar value.

Among the data in patent US20220127258A1, “AROMATIC RING OR HETEROAROMATIC RING COMPOUNDS, PREPARATION METHOD THEREFOR AND MEDICAL USE THEREOF” (The National Institutes of Pharmaceutical R&D Co., Ltd., priority 2019, published 2022) are EC50 values, retold here.

This test has as its target T1, FXR (Homo sapiens, UniProt Q96RI1).
T1 sequence (Q96RI1 262-486 limits assumed): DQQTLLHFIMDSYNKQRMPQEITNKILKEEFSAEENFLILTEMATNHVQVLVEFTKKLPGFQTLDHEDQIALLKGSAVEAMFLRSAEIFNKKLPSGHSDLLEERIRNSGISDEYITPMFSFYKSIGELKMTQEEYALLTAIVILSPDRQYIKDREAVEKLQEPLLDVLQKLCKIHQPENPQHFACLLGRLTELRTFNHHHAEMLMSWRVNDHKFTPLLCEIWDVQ
Description: FXR agonistic activity, luciferase assay. In kind it is cell-based. The following applies: luc2P-GAL4-HEK293 cells transfected with pBIND-FXR, 24 hours. The procedure: The FXR agonistic activity of the compound of the present invention was evaluated using the luciferase assay.
The experimental process comprises the follows. The luc2P-GAL4-HEK293 stably transfected cell line (the cell line was established by transfecting pGL4.35 plasmid with HEK293 cells which was then subjected to Hygromycin B screening. The cell contained 9×GAL4 UAS and firefly luciferase reporter gene. The ligand-activated LBD-GAL4 DBD fusion protein can enter the nucleus to bind to 9×GAL4 UAS and activate the transcription of the downstream luciferase reporter gene) was transferred to a 96-well plate with […] per well. pBIND-FXR (Which was constructed by inserting FXR-LBD into pFN26A-BIND hRluc-neo Flexi® vector. The plasmid was 7.5 kb in size, Amp resistant, contained FXR-LBD, and can express FXR-LBD and GAL4 DBD fusion proteins) was transfected using X-tremeGENE HP transfection reagent. The ratio of plasmid to transfection reagent was 1 μg: 2 μl. The specific amount was 100 ng of plasmid and 0.2 μl of X-tremeGENE HP transfection reagent per well. The test compounds (the highest concentration of each compound was 30 μM, 3-fold dilution, a total of 10 concentrations) were added to induce the expression of luciferase. After 24 hours, the 96-well plate containing the test cells was taken out from the incubator, and placed at room temperature. Dual-Glo® Luciferase Reagent with the volume equal to the volume of the medium in the well (80 μl/well) was added to each well and mixed well. The plate was incubated at room temperature for 20 minutes to allow the cells to be fully lysed. All the liquid in the plate was transferred to a 96-well microtiter plate, and the firefly luciferin value was measured with a multi-function plate reader (manufacturer: Bio Tek (USA); model: Synergy4). Dual-Glo® a Stop & Glo® Reagent with the volume equal to the volume of the initial medium (80 μl/well) was added to each well and mixed well. The plate was incubated at room temperature for 10 minutes, and the renilla luciferin value was measured. The measurement order of renilla fluorescence should be the same as that of firefly fluorescence. Curve fitting and EC50 calculation were conducted using GraphPad Prism 5 software by nonlinear regression method. The fitting equation is: Y=Bottom+(Top−Bottom)/(1+10^((Log EC50−X)*HillSlope)), wherein EC50 refers to the semi-effective concentration, Top refers to the maximum effect, Bottom refers to the blank effect, and HillSlope refers to the slope.
On to `O=C(O)c1ccc(-c2nnc(N3[C@@H]4CC[C@H]3C[C@@H](OCc3c(-c5ccccc5OC(F)(F)F)noc3C3CC3)C4)o2)cc1Cl` [Example 23, 2-chloro-4-(5-((1R,3r,5S)-3-((5-cyclopropyl-3-(2-(trifluoromethoxy)phenyl)isoxazol-4-yl)methoxy)-8-azabicyclo[3.2.1]octan-8-yl)-1,3,4-oxadiazol-2-yl)benzoic acid], for which the negative-log EC50 (pEC50) was 6.30 to 7.00.
Then `O=C(O)c1cc(-c2nnc(N3[C@@H]4CC[C@H]3C[C@@H](OCc3c(-c5ccccc5OC(F)(F)F)noc3C3CC3)C4)o2)cs1` [Example 34], with less than 6.30; and `COc1cc(-c2nnc(N3[C@@H]4CC[C@H]3C[C@@H](OCc3c(-c5c(Cl)cccc5Cl)noc3C3CC3)C4)o2)ccc1C(=O)O` [Example 13], with more than 7.60.
Take `O=C(O)c1cccc(-c2nnc(N3[C@@H]4CC[C@H]3C[C@@H](OCc3c(-c5c(Cl)cccc5Cl)noc3C3CC3)C4)o2)c1` [Example 15]: the pEC50 is more than 7.60.
On to `O=C(O)c1ccc(-c2nnc(N3[C@@H]4CC[C@H]3C[C@@H](OCc3c(-c5c(Cl)cccc5Cl)noc3C3CC3)C4)o2)nc1` [Example 19, 6-(5-((1R,3r,5S)-3-((5-cyclopropyl-3-(2,6-dichlorophenyl)isoxazol-4-yl)methoxy)-8-azabicyclo[3.2.1]octan-8-yl)-1,3,4-oxadiazol-2-yl)nicotinic acid], for which the negative logarithm of the EC50 (pEC50) was less than 6.30.
As to `O=C(O)c1cccc(-c2nnc(N3[C@@H]4CC[C@H]3C[C@@H](OCc3c(-c5ccccc5OC(F)(F)F)noc3C3CC3)C4)o2)n1` [Example 24, 6-(5-((1R,3r,5S)-3-((5-cyclopropyl-3-(2-(trifluoromethoxy)phenyl)isoxazol-4-yl)methoxy)-8-azabicyclo[3.2.1]octan-8-yl)-1,3,4-oxadiazol-2-yl)pyridine-2-carboxylic acid], the pEC50 is less than 6.30.
The value for `Cc1cc(C(=O)O)ccc1-c1noc(N2[C@@H]3CC[C@H]2C[C@@H](OCc2c(-c4c(Cl)cccc4Cl)noc2C2CC2)C3)n1` [Example 5] was more than 7.60; that for `O=C(O)c1ccc(-c2noc(N3[C@@H]4CC[C@H]3C[C@@H](OCc3c(-c5c(Cl)cccc5Cl)noc3C3CC3)C4)n2)cc1` [Example 1, 4-(5-((1R,3r,5S)-3-((5-cyclopropyl-3-(2,6-dichlorophenyl)-isoxazol-4-yl)methoxy)-8-azabicyclo[3.2.1]octan-8-yl)-1,2,4-oxadiazol-3-yl)benzoic acid] was more than 7.60; that for `O=C(O)c1ccc(-c2nnc(N3[C@@H]4CC[C@H]3C[C@@H](OCc3c(-c5c(Cl)cccc5Cl)noc3C3CC3)C4)o2)cn1` [Example 18, 5-(5-((1R,3r,5S)-3-((5-cyclopropyl-3-(2,6-dichlorophenyl)isoxazol-4-yl)methoxy)-8-azabicyclo[3.2.1]octan-8-yl)-1,3,4-oxadiazol-2-yl)pyridine-carboxylic acid] was 6.30 to 7.00.
For `O=C(O)c1cc(-c2nnc(N3[C@@H]4CC[C@H]3C[C@@H](OCc3c(-c5c(Cl)cccc5Cl)noc3C3CC3)C4)o2)cs1` [Example 21], the pEC50 is 6.30 to 7.00.
For the compound `O=C(O)c1cccc(-c2nnc(N3[C@@H]4CC[C@H]3C[C@@H](OCc3c(-c5c(Cl)cccc5Cl)noc3C3CC3)C4)o2)n1` [Example 10, 6-(5-((1R,3r,5S)-3-((5-cyclopropyl-3-(2,6-dichlorophenyl)isoxazol-4-yl)methoxy)-8-azabicyclo[3.2.1]octan-8-yl)-1,3,4-oxadiazol-2-yl)pyridine-2-carboxylic acid], the negative-log EC50 (pEC50) is 6.30 to 7.00.
Consider `O=C(O)c1ccc(-c2noc(N3[C@@H]4CC[C@H]3C[C@@H](OCc3c(-c5c(Cl)cccc5Cl)noc3C3CC3)C4)n2)s1` [Example 4], for which the pEC50 was more than 7.60.
With `O=C(O)c1ccc(-c2nnc(N3[C@@H]4CC[C@H]3C[C@@H](OCc3c(-c5ccccc5OC(F)(F)F)noc3C3CC3)C4)o2)cn1` [Example 31, 5-(5-((1R,3r,5S)-3-((5-cyclopropyl-3-(2-(trifluoromethoxy)phenyl)isoxazol-4-yl)methoxy)-8-azabicyclo[3.2.1]octan-8-yl)-1,3,4-oxadiazol-2-yl)pyridine-carboxylic acid], the pEC50 is 6.30 to 7.00.
For the compound `O=C(O)c1ccc(-c2noc(N3[C@@H]4CC[C@H]3C[C@@H](OCc3c(-c5c(Cl)cccc5Cl)noc3C3CC3)C4)n2)cc1Cl` [Example 2, 2-chloro-4-(5-((1R,3r,5S)-3-((5-cyclopropyl-3-(2,6-dichlorophenyl)isoxazol-4-yl)methoxy)-8-azabicyclo[3.2.1]octan-8-yl)-1,2,4-oxadiazol-3-yl)benzoic acid], the pEC50 was more than 7.60.
As for `O=C(O)c1csc(-c2nnc(N3[C@@H]4CC[C@H]3C[C@@H](OCc3c(-c5ccccc5OC(F)(F)F)noc3C3CC3)C4)o2)c1` [Example 33, 5-(5-((1R,3r,5S)-3-((5-cyclopropyl-3-(2-(trifluoromethoxy)phenyl)isoxazol-4-yl)methoxy)-8-azabicyclo[3.2.1]octan-8-yl)-1,3,4-oxadiazol-2-yl)thiophene-3-carboxylic acid], the pEC50 was 6.30 to 7.00.
The value for `Cc1cc(-c2nnc(N3[C@@H]4CC[C@H]3C[C@@H](OCc3c(-c5c(Cl)cccc5Cl)noc3C3CC3)C4)o2)ccc1C(=O)O` [Example 17] was more than 7.60; that for `Cc1cc(-c2nnc(N3[C@@H]4CC[C@H]3C[C@@H](OCc3c(-c5ccccc5OC(F)(F)F)noc3C3CC3)C4)o2)ccc1C(=O)O` [Example 30] was more than 7.60; that for `O=C(O)c1ccc(-c2nnc(N3[C@@H]4CC[C@H]3C[C@@H](OCc3c(-c5ccccc5OC(F)(F)F)noc3C3CC3)C4)o2)nc1` [Example 32] was less than 6.30.
`O=C(O)c1cccc(-c2noc(N3[C@@H]4CC[C@H]3C[C@@H](OCc3c(-c5c(Cl)cccc5Cl)noc3C3CC3)C4)n2)n1` [Example 3]: the pEC50 is more than 7.60.
`O=C(O)c1cccc(-c2noc(N3[C@@H]4CC[C@H]3C[C@@H](OCc3c(-c5c(Cl)cccc5Cl)noc3C3CC3)C4)n2)c1` [Example 6]: the negative-log EC50 (pEC50) is more than 7.60.
On to `Cc1cc(-c2noc(N3[C@@H]4CC[C@H]3C[C@@H](OCc3c(-c5c(Cl)cccc5Cl)noc3C3CC3)C4)n2)ccc1C(=O)O` [Example 7], for which the pEC50 was more than 7.60.
For the compound `O=C(O)c1ccc(-c2nnc(N3[C@@H]4CC[C@H]3C[C@@H](OCc3c(-c5ccccc5OC(F)(F)F)noc3C3CC3)C4)o2)s1` [Example 25], the pEC50 was 6.30 to 7.00.
The value for `Cc1cc(C(=O)O)ccc1-c1nnc(N2[C@@H]3CC[C@H]2C[C@@H](OCc2c(-c4ccccc4OC(F)(F)F)noc2C2CC2)C3)o1` [Example 27] was more than 7.60; that for `O=C(O)c1ccc(-c2nnc(N3[C@@H]4CC[C@H]3C[C@@H](OCc3c(-c5c(Cl)cccc5Cl)noc3C3CC3)C4)o2)c(F)c1` [Example 16, 4-(5-((1R,3r,5S)-(3-((5-cyclopropyl-3-(2,6-dichlorophenyl)isoxazol-4-yl))methoxy)-8-azabicyclo[3.2.1]octan-8-yl)-1,3,4-oxadiazol-2-yl)-3-fluorobenzoic acid] was 7.00 to 7.30.
